Measured values reported in US20170276611A1, “CHALCOGENOPYRYLIUM DYES, COMPOSITIONS COMPRISING SAME, COMPOSITE NANOPARTICLES COMPRISING SAME, AND METHODS OF MAKING AND USING THE SAME” (The Research Foundation for The State University of New York, priority 2014, published 2017).

Test: UV/VIS-near-IR absorption of the dyes
Type: physicochemical
Conditions: for ε (CH2Cl2): molar extinction coefficient in CH2Cl2
Description: Synthetic Methods. All reactions were performed open to air unless otherwise noted. Concentration in vacuo was performed on a rotary evaporator. NMR spectra were recorded at 300 or 500 MHz for ^1H and at 75.5 MHz for ^13C with residual solvent signal as internal standard. UV/VIS-near-IR spectra were recorded in quartz cuvettes with a 1-cm path length. Melting points were determined with a capillary melting point apparatus and are uncorrected. […] Pyranones 16b-16d are known compounds (J. Heterocycl. Chem. 1999, 36, 707-717). The synthesis of thiopyranone 16a and 4-methylpyrylium salt 15c is shown in Scheme 2. 4-Methylpyrylium salts 15a, 15d, and 15e have been reported previously in the literature (J. Org. Chem. 1982, 47, 5235-5239; Organometallics 1988, 7, 1131-1147; Dyes Pigm. 2000, 45, 1-7).

[1] = Table 2, Example 2 dyes, CH2Cl2

Compound | λmax (CH2Cl2) (absorption maximum in CH2Cl2) [nm] | ε (CH2Cl2) [M⁻¹ cm⁻¹] | Log (ε) (Table 2, Example 2 dyes) | λmax (CH2Cl2) [1] [nm]
C(=C1C=C(c2ccccc2)SC(c2ccccc2)=C1)c1cc(-c2cccs2)[s+]c(-c2cccs2)c1.F[P-](F)(F)(F)(F)F [Dye 1] | 653 | 130000 |  | 
C(=Cc1cc(-c2ccccc2)[se+]c(-c2ccccc2)c1)C=C1C=C(c2ccccc2)SC(c2ccccc2)=C1.F[P-](F)(F)(F)(F)F [Dye 1b, 4-(3-(2,6-diphenyl-4H-thiopyran-4-ylidene)prop-1-enyl)-2,6-diphenylselenopyrylium hexafluorophosphate] |  |  | 5.30 | 784
C(=C1C=C(c2ccccc2)[Se]C(c2ccccc2)=C1)c1cc(-c2cccs2)[s+]c(-c2cccs2)c1.F[P-](F)(F)(F)(F)F [Dye 2, 4-((2,6-diphenyl-4H-selenopyran-4-ylidene)methyl)-2,6-di(thiophen-2-yl)thiopyrylium hexafluorophosphate] | 676 | 130000 |  | 
C(=Cc1cc(-c2ccccc2)[se+]c(-c2ccccc2)c1)C=C1C=C(c2cccs2)SC(c2cccs2)=C1.F[P-](F)(F)(F)(F)F [Dye 2a, 4-(3-(2,6-dithiophen-2-yl-4H-thiopyran-4-ylidene)prop-1-enyl)-2,6-diphenylselenopyrylium hexafluorophosphate] |  |  | 5.40 | 810
C(=Cc1cc(-c2ccccc2)[s+]c(-c2ccccc2)c1)C=C1C=C(c2cccs2)SC(c2cccs2)=C1.F[P-](F)(F)(F)(F)F [Dye 2b, 4-(3-(2,6-dithiophen-2-yl-4H-thiopyran-4-ylidene)prop-1-enyl)-2,6-diphenylthiopyrylium hexafluorophosphate] |  |  | 5.34 | 789
C(=Cc1cc(-c2cccs2)[s+]c(-c2cccs2)c1)C=C1C=C(c2cccs2)SC(c2cccs2)=C1.F[P-](F)(F)(F)(F)F [Dye 3, 4-(3-(2,6-dithiophen-2-yl-4H-thiopyran-4-ylidene)prop-1-enyl)-(2,6-dithiophen-2-yl)thiopyrylium hexafluorophosphate] |  |  | 5.45 | 813
C(=C1C=C(c2ccccc2)[Se]C(c2ccccc2)=C1)c1cc(-c2cccs2)[se+]c(-c2cccs2)c1.F[P-](F)(F)(F)(F)F [Dye 3, 4-((2,6-diphenyl-4H-selenopyran-4-ylidene)methyl)-2,6-di(thiophen-2-yl)selenopyrylium hexafluorophosphate] | 699 | 150000 |  | 
C(=C1C=C(c2cccs2)SC(c2cccs2)=C1)c1cc(-c2cccs2)[s+]c(-c2cccs2)c1.F[P-](F)(F)(F)(F)F [Dye 4, 4-((2,6-di(thiophen-2-yl)-4H-thiopyran-4-ylidene)methyl)-2,6-di(thiophen-2-yl)thiopyrylium hexafluorophosphate] | 676 | 120000 |  | 
C(=C1C=C(c2cccs2)SC(c2cccs2)=C1)c1cc(-c2cccs2)[se+]c(-c2cccs2)c1.F[P-](F)(F)(F)(F)F [Dye 5, 4-((2,6-di(thiophen-2-yl)-4H-thiopyran-4-ylidene)methyl)-2,6-di(thiophen-2-yl)selenopyrylium hexafluorophosphate] | 698 | 110000 |  | 
C(=C1C=C(c2cccs2)[Se]C(c2cccs2)=C1)c1cc(-c2cccs2)[se+]c(-c2cccs2)c1.F[P-](F)(F)(F)(F)F [Dye 6, 4-((2,6-di(thiophen-2-yl)-4H-selenopyran-4-ylidene)methyl)-2,6-di(thiophen-2-yl)selenopyrylium hexafluorophosphate] | 724 | 130000 |  | 
C(=C1C=C(c2ccccc2)SC(c2ccccc2)=C1)c1cc(-c2ccc[se]2)[s+]c(-c2ccc[se]2)c1.F[P-](F)(F)(F)(F)F [Dye 7, 4-((2,6-diphenyl-4H-thiopyran-4-ylidene)methyl)-2,6-di(selenophen-2-yl)thiopyrylium hexafluorophosphate] | 659 | 140000 |  | 
C(=C1C=C(c2ccc[se]2)SC(c2ccc[se]2)=C1)c1cc(-c2ccc[se]2)[s+]c(-c2ccc[se]2)c1.F[P-](F)(F)(F)(F)F [Dye 8, 4-((2,6-di(selenophen-2-yl)-4H-thiopyran-4-ylidene)methyl)-2,6-di(selenophen-2-yl)thiopyrylium hexafluorophosphate] | 687 | 110000 |  | 
C(=Cc1cc(-c2ccccc2)[se+]c(-c2ccccc2)c1)C=C1C=C(c2ccccc2)[Se]C(c2ccccc2)=C1.F[P-](F)(F)(F)(F)F [Dye 9, 4-(3-(2,6-diphenyl-4H-selenopyran-4-ylidene)prop-1-enyl)-2,6-diphenylselenopyrylium hexafluorophosphate] | 806 | 250000 |  | 
C(=Cc1cc(-c2ccccc2)[se+]c(-c2ccccc2)c1)C=C1C=C(c2ccccc2)SC(c2ccccc2)=C1.F[P-](F)(F)(F)(F)F [Dye 10, 4-(3-(2,6-diphenyl-4H-thiopyran-4-ylidene)prop-1-enyl)-2,6-diphenylselenopyrylium hexafluorophosphate] | 784 | 200000 |  | 
C(=Cc1cc(-c2ccccc2)[se+]c(-c2ccccc2)c1)C=C1C=C(c2cccs2)SC(c2cccs2)=C1.F[P-](F)(F)(F)(F)F [Dye 11, 4-(3-(2,6-dithiophen-2-yl-4H-thiopyran-4-ylidene)prop-1-enyl)-2,6-diphenylselenopyrylium hexafluorophosphate] | 810 | 250000 |  | 
C(=Cc1cc(-c2ccccc2)[s+]c(-c2ccccc2)c1)C=C1C=C(c2cccs2)SC(c2cccs2)=C1.F[P-](F)(F)(F)(F)F [Dye 12, 4-(3-(2,6-dithiophen-2-yl-4H-thiopyran-4-ylidene)prop-1-enyl)-2,6-diphenylthiopyrylium hexafluorophosphate] | 789 | 220000 |  | 
C(=Cc1cc(-c2cccs2)[s+]c(-c2cccs2)c1)C=C1C=C(c2cccs2)SC(c2cccs2)=C1.F[P-](F)(F)(F)(F)F [Dye 13, 4-(3-(2,6-dithiophen-2-yl-4H-thiopyran-4-ylidene)prop-1-enyl)-(2,6-dithiophen-2-yl)thiopyrylium hexafluorophosphate] | 813 | 280000 |  | 
C(=Cc1cc(-c2ccc[se]2)[s+]c(-c2ccc[se]2)c1)C=C1C=C(c2ccc[se]2)SC(c2ccc[se]2)=C1.F[P-](F)(F)(F)(F)F [Dye 14, 4-(3-(2,6-di(selenophen-2-yl)-4H-thiopyran-4-ylidene)prop-1-en-1-yl)-2,6-di(selenophen-2-yl)thiopyrylium hexafluorophosphate] | 826 | 230000 |  | 
C1=C(c2ccccc2)Sc2ccccc2/C1=C/C=C/C1=CC(c2ccccc2)=[SH]c2ccccc21 [Dye 15, 2-phenyl-4-((E)-3-((E)-2-phenyl-4H-thiochromen-4-ylidene)prop-1-en-1-yl)thiochromenylium hexafluorophosphate] | 789 | 150000 |  | 
C1=C(/C=C/C=C2\C=C(c3ccccc3)[Se]c3ccccc32)C=C(c2ccccc2)[SH]=C1c1ccccc1 [Dye 16, 4-(3-(2,6-diphenyl-4H-thiopyran-4-ylidene)prop-1-enyl)-2-phenylselenobenzopyrylium hexafluorophosphate] | 748 | 61000 |  | 
C1=C(c2cccs2)[Se]c2ccccc2/C1=C/C1=CC(c2cccs2)=[SeH]c2ccccc21 [Dye 17, 2-(thiophene-2-yl)-4-((2-(thiophen-2-yl)-4H selenobenzopyran-4-ylidene)methyl)selenobenzopyrylium hexafluorophosphate] | 786 | 78000 |  | 
C(/C=C/C=C/c1cc(-c2cccs2)[s+]c(-c2cccs2)c1)=C1C=C(c2cccs2)SC(c2cccs2)=C1 [Dye 18, 4-((1E,3E)-5-(2,6-di(thiophen-2-yl)-4H-thiopyran-4-ylidene)penta-1,3-dien-1-yl)-2,6-di(thiophen-2-yl)thiopyrylium] | 943 |  |  | 
C(/C=C/C=C/c1cc(-c2ccc[se]2)[se+]c(-c2ccc[se]2)c1)=C1C=C(c2ccc[se]2)[Se]C(c2ccc[se]2)=C1 [Dye 19, 4-((1E,3E)-5-(2,6-di(selenophen-2-yl)-4H-selenopyran-4-ylidene)penta-1,3-dien-1-yl)-2,6-di(selenophen-2-yl)selenopyrylium] | 1001 |  |  | 
ClC1=C(/C=C/c2cc(-c3ccccc3)[s+]c(-c3ccccc3)c2)CCC/C1=C\C=C1C=C(c2ccccc2)SC(c2ccccc2)=C1 [Dye 20, 4-((E)-2-((E)-2-chloro-3-(2-(2,6-diphenyl-4H-thiopyran-4-ylidene)ethylidene)cyclohex-1-en-1-yl)vinyl)-2,6-diphenylthiopyrylium hexafluorophosphate] | 1042 | 100000 |  | 
ClC1=C(/C=C/c2cc(-c3cccs3)[s+]c(-c3cccs3)c2)CCC/C1=C\C=C1C=C(c2cccs2)SC(c2cccs2)=C1 [Dye 21, 4-((E)-2-((E)-2-chloro-3-(2-(2,6-di(thiophen-2-yl)-4H-thiopyran-4-ylidene)ethylidene)-cyclohex-1-en-1-yl)vinyl)-2,6-di(thiophen-2-yl)thiopyrylium hexafluorophosphate] | 1119 |  |  | 
